Source: US20230014181A1, “CULTURE SYSTEM AND METHODS FOR IMPROVED MODELING OF NEUROLOGICAL CONDITIONS” (Genentech, Inc., priority 2021, published 2023)
Read-outs that look alike come from different tables or passages of the source.

Assays:
[1] = system: human iPSC neurons and astrocytes treated with 5 μM sAβ42s; assay: Focused small molecule screen, double culture (neuron, astrocyte), rescue from sAβ42s toxicity, high content imaging; type: cell-based; conditions: double culture, 5 μM sAβ42s; for percent rescue from sAβ42s toxicity at 50 µM: Homo sapiens, iPSC
Method: (§1) FIGS. 11A-11D show synapse % rescue versus MAP2% rescue (FIGS. 11A-11B) and beta III tubulin % rescue versus MAP2% rescue (FIGS. 11C-11D), in neurons and astrocytes (FIGS. 11A and 11C) or neurons, astrocytes, and microglia (FIGS. 11B and 11D) treated with 5 μM sAβ42s and small molecules from a focused screen of known neuroprotective agents at multiple concentrations (50 μM, 25 μM, 12.5 μM and 6.25 μM (double culture), 50 μM, 12.5 μM, 3.1 μM and 0.78 μM (triple culture). Small molecules that prevented toxicity in dendrites (MAP2), synapses (Synapsin 1/2), cell count (CUX2), or axons ([…]) at or above 30% were considered hits (red dotted line).
Neurons from both NSC lines were evaluated by immunofluorescence staining. Briefly, cells were fixed with 4% PFA and 4% sucrose at room temperature for 20 minutes using Bravo automation. Fixed cells were then washed 2 times with PBS using Biotek 406 microplate washer (Beckman Coulter), followed by permeabilization and blocking by incubation with a solution containing 1×PBS, 0.1% Triton X-100, 2% donkey serum, and 1% BSA at room temperature for 30 minutes. Blocking solution was removed and cells were incubated with primary antibodies in blocking solution overnight at 4° C. After washing 6 times with PBS on Biotek 406 cell plate washer (Beckman Coulter), cells were then incubated with fluorophore-conjugated secondary antibodies for 1 hour at room temperature in the dark to avoid photobleaching. Cells were then washed 6 more times in with PBS before imaging. Fluorescent images were captured using IN Cell 6000 confocal microscope (GE Healthcare Life Sciences). The image analysis was performed with IN Cell 6000 analysis software.
Prior to experimentation, media volume in wells containing neurons was equalized with liquid handling automation (Bravo) in order to ensure precise control of concentrations. All Aβ42 oligomers, anti-Aβ, small molecules, inflammatory cytokines were prepared at 10× concentration and added to Neuronal Culture Media at an appropriate volume. For the repeated dosing experiments, the media were refreshed 50% at each dosing first, before adding Aβ42 oligomers, and/or anti-Aβ antibody at the specified final concentration.
(§2) In double (neuron, astrocyte) and triple (neuron, astrocyte, microglia) cultures, each small molecule listed in Table 1 was tested in the AD model paradigm at up to four concentrations. Molecules that characterized ≥30% rescue in any of the four measurements of dendrites area (MAP2), synapses count (synapsin 1/2), or cell count (CUX2), or axon area (Beta III Tubulin; “BT3”)) were classified as hits (FIGS. 11A-11D, Table 2, and Table 3).

[2] = system: human iPSC neurons, astrocytes and microglia treated with 5 μM sAβ42s; assay: Focused small molecule screen, triple culture (neuron, astrocyte, microglia), rescue from sAβ42s toxicity; type: cell-based; conditions: for percent rescue from sAβ42s toxicity at 50 µM: Homo sapiens, iPSC
Method: as §1
Frozen cells were thawed and immediately seeded at a density of 8,000 cells/well of a 384-well plate onto 8-week old neuron-astrocyte co-culture in Microglia media (BrainPhys™ neuronal media (Stem Cell Technologies) supplemented with 1× B27 with vitamin A, 1×N2 Plus Media Supplement (R&D Systems), 20 ng/mL BDNF, 20 ng/mL GDNF, 1 mM creatine, 200 nM L-ascorbic acid, 1 μg/mL mouse laminin, 0.5 mM GlutaMAX™ (Thermofisher), 0.5× penicillin-streptomycin, 1× normocin, 5 ng/mL TGF-β, 100 ng/mL human IL-34, 1.5 μg/mL cholesterol, 1 ng/mL gondoic acid, 100 ng/mL oleic acid, 460 μM thioglycerol, 1× insulin-transferrin-selenium, 25 ng/mL rhM-CSF, 5.4 μg/mL human insulin solution).
as §2

SMILES: CN(C)S(=O)(=O)c1ccc2c(c1)/C(=C/c1cc3c([nH]1)CCCC3)C(=O)N2 [SU6656]
- % B3T rescue ([1]; 6.25 μM compound): 4%
- % Cux2 rescue ([1]; 6.25 μM compound): 101%
- % MAP2 rescue ([1]; 6.25 μM compound): 5%
- % Synapse rescue ([1]; 6.25 μM compound): 13%
- % B3T rescue ([1]; 12.5 μM compound): 3%
- % Cux2 rescue ([1]; 12.5 μM compound): 120%
- % MAP2 rescue ([1]; 12.5 μM compound): 4%
- % Synapse rescue ([1]; 12.5 μM compound): 11%
- % B3T rescue ([1]; 25 μM compound): −37%
- % Cux2 rescue ([1]; 25 μM compound): 126%
- % MAP2 rescue ([1]; 25 μM compound): 3%
- % Synapse rescue ([1]; 25 μM compound): 15%
- % B3T rescue ([1]; 50 μM compound): −188%
- % Cux2 rescue ([1]; 50 μM compound): 106%
- % MAP2 rescue ([1]; 50 μM compound): 3%
- % Synapse rescue ([1]; 50 μM compound): 11%
- % B3T rescue ([2]; 0.78 μM compound): 80%
- % MAP2 rescue ([2]; 0.78 μM compound): 58%
- % Synapse rescue ([2]; 0.78 μM compound): 51%
- % B3T rescue ([2]; 3.13 μM compound): 92%
- % MAP2 rescue ([2]; 3.13 μM compound): 72%
- % Synapse rescue ([2]; 3.13 μM compound): 64%
- % B3T rescue ([2]; 12.50 μM compound): 71%
- % MAP2 rescue ([2]; 12.50 μM compound): 53%
- % Synapse rescue ([2]; 12.50 μM compound): 49%
- % B3T rescue ([2]; 50.00 μM compound): 48%
- % MAP2 rescue ([2]; 50.00 μM compound): 40%
- % Synapse rescue ([2]; 50.00 μM compound): 36%

SMILES: CC(=O)c1c(C)c2cnc(Nc3ccc(N4CCNCC4)cn3)nc2n(C2CCCC2)c1=O [PD 0332991 isethionate]
- percent rescue from sAβ42s toxicity at 50 µM ([1]; 50 μM compound, read-out: % B3T rescue): 69%
- percent rescue from sAβ42s toxicity at 50 µM ([1]; 50 μM compound, read-out: % Cux2 rescue): -37%
- percent rescue from sAβ42s toxicity at 50 µM ([1]; 50 μM compound, read-out: % MAP2 rescue): -97%
- percent rescue from sAβ42s toxicity at 50 µM ([1]; 50 μM compound, read-out: % Synapse rescue): -15%
- percent rescue from sAβ42s toxicity at 50 µM ([2]; 50.00 μM compound, read-out: % B3T rescue): 90%
- percent rescue from sAβ42s toxicity at 50 µM ([2]; 50.00 μM compound, read-out: % MAP2 rescue): -79%
- percent rescue from sAβ42s toxicity at 50 µM ([2]; 50.00 μM compound, read-out: % Synapse rescue): -29%

SMILES: COC(=O)C1(C)c2[nH]c3ccccc3c2CCN1C(=O)CCl (stereo not drawn) [PDI Inhibitor 16F16]
- % B3T rescue ([1]; 6.25 μM compound): 27%
- % Cux2 rescue ([1]; 6.25 μM compound): 46%
- % MAP2 rescue ([1]; 6.25 μM compound): 6%
- % Synapse rescue ([1]; 6.25 μM compound): 5%
- % B3T rescue ([1]; 12.5 μM compound): 3%
- % Cux2 rescue ([1]; 12.5 μM compound): 45%
- % MAP2 rescue ([1]; 12.5 μM compound): 1%
- % Synapse rescue ([1]; 12.5 μM compound): −1%
- % B3T rescue ([1]; 25 μM compound): −46%
- % Cux2 rescue ([1]; 25 μM compound): 66%
- % MAP2 rescue ([1]; 25 μM compound): −10%
- % Synapse rescue ([1]; 25 μM compound): −8%
- % B3T rescue ([1]; 50 μM compound): −22%
- % Cux2 rescue ([1]; 50 μM compound): 34%
- % MAP2 rescue ([1]; 50 μM compound): −12%
- % Synapse rescue ([1]; 50 μM compound): −13%
- % B3T rescue ([2]; 3.13 μM compound): 71%
- % MAP2 rescue ([2]; 3.13 μM compound): 44%
- % Synapse rescue ([2]; 3.13 μM compound): 43%
- % B3T rescue ([2]; 12.50 μM compound): 43%
- % MAP2 rescue ([2]; 12.50 μM compound): −6%
- % Synapse rescue ([2]; 12.50 μM compound): 8%
- % B3T rescue ([2]; 50.00 μM compound): 42%
- % MAP2 rescue ([2]; 50.00 μM compound): −5%
- % Synapse rescue ([2]; 50.00 μM compound): −1%
